Results: US20120115865A1, “New Salts of an Indole Derivative and Their Use in Medicine” (priority 2006, published 2012)
Counter-ions that a name gives are not always drawn.

Test: Hygroscopicity by Dynamic Vapour Sorption Analysis (DVS)
Type: physicochemical
Conditions: 25° C.
Procedure: Dynamic Vapour Sorption Analysis (DVS)
The studies were undertaken using Dynamic Vapour Sorption Appararatus (DVS, Surface Measurement Systems, London UK). The apparatus consists of Cahn micobalance housed inside a temperature-controled cabinet. All experiments were performed at 25° C. The DVS was used to characterize the moisture uptake (% w/w) at different relative humidities (RH). Samples (5-10 mg) were weighed directly into the DSV sample cup and exposed to different relative humidities.

Molecule | moisture uptake (relative humidity 40%) [% w/w] | moisture uptake (relative humidity 60%) [% w/w] | moisture uptake (relative humidity 80%) [% w/w]
N#Cc1ccc2[nH]c(O)c(-c3ccc(CN4CCOCC4)cn3)c2c1.O=C(O)/C=C\C(=O)O [Maleate, 2-hydroxy-3-[5-(morpholin-4-ylmethyl)pyridin-2-yl]1H-indole-5-carbonitrile maleate] | 1.7 | 2.2 | 2.7
CCS(=O)(=O)O.N#Cc1ccc2[nH]c(O)c(-c3ccc(CN4CCOCC4)cn3)c2c1 [Esylate, 2-Hydroxy-3-[5-(morpholin-4-ylmethyl)pyridin-2-yl]1H-indole-5-carbonitrile esylate] | 0.5 | 0.8 | 1.2
2-Hydroxy-3-[5-(morpholin-4-ylmethyl)pyridin-2-yl]1H-indole-5-carbonitrile edisylate | 5.1 | 6.6 | 8.2
CS(=O)(=O)O.N#Cc1ccc2[nH]c(O)c(-c3ccc(CN4CCOCC4)cn3)c2c1 [Mesylate, 2-Hydroxy-3-[5-(morpholin-4-ylmethyl)pyridin-2-yl]1H-indole-5-carbonitrile mesylate] | 0.7 | 1.1 | 1.6
N#Cc1ccc2[nH]c(O)c(-c3ccc(CN4CCOCC4)cn3)c2c1.O=C(O)/C=C/C(=O)O [Fumarate, 2-hydroxy-3-[5-(morpholin-4-ylmethyl)pyridin-2-yl]1H-indole-5-carbonitrile fumarate] | 3.8 | 4.5 | 5.1
N#Cc1ccc2[nH]c(O)c(-c3ccc(CN4CCOCC4)cn3)c2c1 [HCl, 2-hydroxy-3-[5-(morpholin-4-ylmethyl)pyridin-2-yl]1H-indole-5-carbonitrile, reference compound] | 8.7 | 11.5 | 13.0
N#Cc1ccc2[nH]c(O)c(-c3ccc(CN4CCOCC4)cn3)c2c1.O=P(O)(O)O [Phosphate, 2-hydroxy-3-[5-(morpholin-4-ylmethyl)pyridin-2-yl]1H-indole-5-carbonitrile phosphate] | 4.1 | 6.6 | 10.8
